Experimental data taken from US20150330992A1, “RAPID DISCOVERY AND SCREENING OF ENZYME ACTIVITY USING MASS SPECTROMETRY” (THE REGENTS OF THE UNIVERSITY OF CALIFORNIA, priority 2012, published 2015).
Like-named read-outs stand apart in the source and are kept apart here.

Experiments:
[1] = target: T1, chloramphenicol acetyltransferase (CAT) (Escherichia coli, UniProt P62577); details: 0.5 mM probe, 2 mM acetyl-CoA, 5 minutes; versus control lysate
Description: Enzymatic activity assay—Overnight cultures of E. coli DH1 harboring either pBbB8k-GFP or pBbB8k-CAT were diluted 1:10 in LB with 50 μg mL^−1 kanamycin, and grown for 1 hour at 37° C., after which they were induced with 0.2% (w/v) arabinose. After 2 hours of growth, 0.5 mL of the culture was centrifuged at ˜12000×g for 1 minute, the pellet was resuspended in 0.25 mL aqueous 50 mM sodium phosphate (pH 7.5) and sonicated for 30 seconds. Acetyl-CoA was added to a final concentration of 2 mM and 11 to a final concentration of 0.5 mM. The mixture was mixed and incubated at room temperature for 5 minutes, and subsequently quenched with an equal volume of methanol. A 0.3 μL droplet of the mixture was spotted onto a NIMS chip, and the excess liquid removed 5 seconds later by touching it with a Kimwipe (Kimberly-Clark). The spotted area was washed twice with 1 μL deionized water. The NIMS chip was taped to a modified standard MALDI plate, which was then loaded into an Applied Biosystems 4800 MALDI time of flight (TOF)//TOF mass spectrometer. […] Spectra were acquired in manual mode and positive polarity.

[2] = test system: Alicycyclobacillus acidocaldarius β-glucosidase; details: lacking error analysis; read-out: KM, previously reported; cited from earlier work
[3] = test system: Alicycyclobacillus acidocaldarius β-glucosidase; test: Steady-state kinetic analysis of β-glucosidase with varied cellobiose by oxime-NIMS; format: biochemical; details: 95% confidence level, r^2=0.997
Description: A velocity versus substrate concentration analysis was used to determine the kinetic parameters for β-glucosidase (Aa-βG) from the thermoacidophilic bacterium Alicycyclobacillus acidocaldarius 22 using pure cellobiose as substrate. The experimental data were analyzed using the NonlinearModelFit routine of Mathematic v.8 (Wolfram Research) and v=kcat [S]/(KM+[S]) (kcat, KM, and [S] have their usual definitions).
Glucose formed at different time points from the reaction of Alicycyclobacillus acidocaldarius β-glucosidase with varied cellobiose concentration was quantified and used for steady-state kinetic analysis. The data were analysed using the NonlinearModelFit routine of Mathematic v.8 and v=kcat [S]/(KM+[S]), where kcat, KM, and [S] have their usual definitions.

cytochrome P450BM3 = target: T2, cytochrome P450BM3 (Priestia megaterium, UniProt P14779); test: Whole-cell PECAN detection of cytochrome P450BM3 activity; format: cell-based, E. coli; details: 2 mM probe, 30° C., 16 h; versus GFP control
T2 construct: expressed in transfected cells; host or cells: E. coli liquid culture in terrific broth with d-aminolevulinic acid
Description: The CAEE PECAN probe was used to detect cytochrome P450BM3 activity in whole E. coli cell culture expressing cytochrome P450BM3 using NIMS technology. To 5 mL of E. coli liquid culture in teriffic broth supplemented with 0.5 mM d-aminolevulinic acid, expressing either GFP or cytochrome P450BM3, was added the CAEE PECAN probe to a final concentration of 2 mM and DMSO to a final concentration of 2%. The bacterial cultures were shaken in baffled borosilicate culture tubes at 30° C. for 16 h and quenched with an equal volume of methanol. 5 uL, of this mixture was then mixed with 5 uL, of click reaction solution [50 mM Tris(3-hydroxypropyltriazolylinethyl)amine (THPTA), 50 mM sodium ascorbate, 10 mM copper sulfate and 0.5 mM PECAN tag Nz-NPrg (structure shown below) in 50:50 water:methanol] and left to react overnight. NIMS analysis was performed as described above.

[4] = target: T1, chloramphenicol acetyltransferase (CAT); test: PECAN detection of CAT activity in E. coli cell lysate; format: biochemical; design: expressed in transfected cells; host or cells: E. coli DH1 harboring pBbB8k-CAT, arabinose-induced, sonicated lysate; details: cell lysate with added acetyl-CoA, 2 mM probe
Description: Acetyl-CoA was added to a final concentration of 5 mM and the ChlorHexy PECAN probe to a final concentration of 2 mM. […] 5 uL, of the mixture was then mixed with 5 uL of click reaction solution [50 mM Tris(3-hydroxypropyltriazolylmethyl)amine (THPTA), 50 mM sodium ascorbate, 10 mM copper sulfate and 0.5 mM PECAN tag Nz-N3 (structure shown below) in 50:50 water:methanol] and left to react overnight. […] The spotted area was washed with 2×1 μL deionized water and NIMS spectra were obtained.

[5] = target: T1, chloramphenicol acetyltransferase (CAT); test: PECAN detection of CAT activity in whole E. coli cell culture; format: cell-based; design: expressed in transfected cells; host or cells: E. coli DH1 harboring pBbB8k-CAT, arabinose-induced, sonicated lysate; details: whole cell culture without exogenous cofactors, 2 mM probe, 1 h
Description: For the detection of CAT activity in E. coli cell culture, to 5 mL, of E. coli culture in LB medium expressing either GFP or CAT was added the ChlorHexy PECAN probe to a final concentration of 2 mM. The bacterial cultures were shaken at 37° C. for 1 h and quenched with an equal volume of methanol. 5 uL of this mixture was then mixed with 5 ul, of click reaction solution (recipe described above) and left to react overnight. NIMS analysis was performed as described above.
In FIG. 25, the 42-mass unit shift relative to the GFP control was the mass of a single acetyl group attached to the probe.

T1 sequence (P62577 whole entry, looked up): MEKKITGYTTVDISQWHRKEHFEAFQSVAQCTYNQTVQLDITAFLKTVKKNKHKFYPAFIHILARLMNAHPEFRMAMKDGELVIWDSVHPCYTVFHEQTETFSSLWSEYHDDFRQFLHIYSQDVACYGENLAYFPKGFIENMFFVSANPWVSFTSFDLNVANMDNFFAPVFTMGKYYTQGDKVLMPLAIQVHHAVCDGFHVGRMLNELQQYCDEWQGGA
T2 sequence (P14779 whole entry): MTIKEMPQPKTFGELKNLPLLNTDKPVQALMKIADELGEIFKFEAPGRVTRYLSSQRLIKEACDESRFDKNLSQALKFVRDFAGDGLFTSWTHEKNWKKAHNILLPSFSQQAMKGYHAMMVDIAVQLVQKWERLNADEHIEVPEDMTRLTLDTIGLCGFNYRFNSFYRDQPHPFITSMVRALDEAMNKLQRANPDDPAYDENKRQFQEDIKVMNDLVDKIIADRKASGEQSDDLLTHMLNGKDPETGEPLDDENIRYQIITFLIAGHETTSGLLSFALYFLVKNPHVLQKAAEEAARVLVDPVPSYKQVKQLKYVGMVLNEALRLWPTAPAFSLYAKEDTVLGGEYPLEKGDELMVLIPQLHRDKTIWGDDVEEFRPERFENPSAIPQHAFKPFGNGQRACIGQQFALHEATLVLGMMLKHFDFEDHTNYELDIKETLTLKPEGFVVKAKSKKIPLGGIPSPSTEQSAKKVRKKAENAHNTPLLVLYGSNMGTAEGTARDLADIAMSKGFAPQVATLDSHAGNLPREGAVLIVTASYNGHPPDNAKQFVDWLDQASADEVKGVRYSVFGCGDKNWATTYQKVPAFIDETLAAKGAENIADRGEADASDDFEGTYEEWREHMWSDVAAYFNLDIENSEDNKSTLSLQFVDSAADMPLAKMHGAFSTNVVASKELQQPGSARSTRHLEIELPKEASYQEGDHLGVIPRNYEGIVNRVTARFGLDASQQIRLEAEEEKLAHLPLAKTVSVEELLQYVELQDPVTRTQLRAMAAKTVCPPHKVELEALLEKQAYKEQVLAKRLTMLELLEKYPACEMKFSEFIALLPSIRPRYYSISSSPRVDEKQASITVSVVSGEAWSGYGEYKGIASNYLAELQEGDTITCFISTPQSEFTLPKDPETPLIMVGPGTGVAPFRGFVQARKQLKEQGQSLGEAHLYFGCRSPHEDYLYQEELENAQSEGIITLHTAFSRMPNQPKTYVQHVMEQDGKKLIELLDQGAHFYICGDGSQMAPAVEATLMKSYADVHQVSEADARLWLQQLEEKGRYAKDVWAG

## (1R,2R)-N-Nz-1-(4-nitrophenyl)propane-1,3-diol [Compound 11]
[1]
  conversion of probe by CAT (NIMS mass shift): the peak shifts by 42 mass units, as expected from monoacetylation

## O=C[C@H](O)[C@@H](O)[C@H](O[C@@H]1O[C@H](CO)[C@@H](O)[C@H](O)[C@H]1O)[C@H](O)CO [cellobiose]
[2]
  Km: ~10 mM
[3]
  Km: 12.1 ± 4.6 mM
  kcat: 1430 ± 850 s⁻¹

## [N-]=[N+]=NCCOC(=O)C1=CCCCC1 [CAEE, cyclohexenecarboxylate azidoethyl ester]
Cytochrome P450BM3
  conversion of probe by cytochrome P450BM3 (NIMS mass shift): 16-mass unit shift relative to the GFP control

## C#CCCCC(=O)N[C@H](CO)[C@H](O)c1ccc([N+](=O)[O-])cc1 [ChlorHexy, chloramphenicol 5-hexynamide]
[4]
  CAT activity detected with probe: CAT activity was detected
[5]
  CAT activity detected with probe: CAT activity was detected
